The test system of one data set is uterus. In words: Uterine wet weight, post-menopausal (OVX) rat model, four day dosing regimen. Format: in vivo, female Sprague Dawley rats. The note with it: rat, in vivo, po, 0.1 mg/kg/day. The protocol:
In the examples illustrating the methods, a post-menopausal model was used in which effects of different treatments upon various biological parameters were determined, including serum cholesterol concentration, uterine weight, eosinophil peroxidase activity, MCF-7 cell proliferation, and bone density.
(§1) Animals were dosed daily for 4 days. […] A blood sample was collected by cardiac puncture.

A further data set relates to serum cholesterol. In words: Serum cholesterol analysis, OVX rat, four day dosing regimen. Format: in vivo, female Sprague Dawley rats. The protocol: as §1
Blood samples were allowed to clot at room temperature for 2 hours, and serum was obtained following centrifugation for 10 minutes at 3000 rpm. Serum cholesterol was determined using a Boehringer Mannheim Diagnostics high performance cholesterol assay. Briefly the cholesterol was oxidized to cholest-4-en-3-one and hydrogen peroxide. The hydrogen peroxide was then reacted with phenol and 4-aminophenazone in the presence of peroxidase to produce a p-quinone imine dye, which was read spectrophotemetrically at 500 nm. Cholesterol concentration was then calculated against a standard curve. The entire assay was automated using a Biomek Automated Workstation.

The subject of the next data set is tibia density. Nature of the data set: Bone density assay, OVX rat, thirty-five day dosing regimen (single photon absorptiometry of tibia). It is filed as in vivo, female Sprague Dawley rats. The note with it: OVX rats, oral, daily for 35 days, in 20% hydroxypropyl β-cyclodextrin. The protocol:
Following the General Preparation procedure described above, the rats were treated daily for 35 days (6 rats per treatment group) and sacrificed by decapitation on the 36th day. The 35 day time period was sufficient to allow maximal effect on bone density, measured as described herein. At the time of sacrifice, the uteri were removed, dissected free of extraneous tissue, and the fluid contents were expelled before determination of wet weight in order to confirm estrogen deficiency associated with complete ovariectomy. […] The uteri were then placed in 10% neutral buffered formalin to allow for subsequent histological analysis.
The right tibias were excised and scanned at the distal metaphysis 1 mm from the patellar groove with single photon absorptiometry. Results of the densitometer measurements represent a calculation of bone density as a function of the bone mineral content and bone width.
In accordance with the procedures outlined above, compounds of the present invention and EE2 in 20% hydroxypropyl β-cyclodextrin were orally administered to test animals.

For data set [1], the system named is eosinophil peroxidase activity. In words: Uterine eosinophil peroxidase (EPO) assay, OVX rat, four day dosing regimen.
From the text: Seventy-five day old female Sprague Dawley rats (weight range of 200 to 225 g) were obtained from Charles River Laboratories (Portage, MI). The animals were either bilaterally ovariectomized (OVX) or exposed to a sham surgical procedure (Intact) at Charles River Laboratories, and then shipped after one week. Upon arrival, they were housed in metal hanging cages in groups of 3 or 4 per cage and had ad libitum access to food (calcium content approximately 0.5%) and water for one week. […] The photoperiod in the room was 12 hours light and 12 hours dark.
After a one week acclimation period (therefore, two weeks post-OVX), daily dosing with test compound was initiated. 17α-Ethynyl estradiol (EE2) (Sigma Chemical Co., St. Louis, MO), an orally available form of estrogen, or the test compound were given orally, unless otherwise stated, as a suspension in 1% carboxymethyl cellulose or dissolved in 20% cyclodextrin. Animals were dosed daily for 4 days. Following the dosing regimen, animals were weighed and anesthetized with a ketamine:xylazine (2:1, v:v) mixture. A blood sample was collected by cardiac puncture. The animals were then sacrificed by asphyxiation with CO2, the uterus was removed through a midline incision, and a wet uterine weight was determined.
Uteri were kept at 4° C until time of enzymatic analysis. The uteri were then homogenized in 50 volumes of 50 mM Tris buffer (pH - 8.0) containing 0.005% Triton X-100. Upon addition of 0.01% hydrogen peroxide and 10 mM o-phenylenediamine (final concentrations) in Tris buffer, increase in absorbance was monitored for one minute at 450 nm. […] The maximal velocity of a 15 second interval was determined over the initial, linear portion of the reaction curve.

Each structure is given as a SMILES string.

Regarding `C#C[C@]1(O)CC[C@H]2[C@@H]3CCc4cc(O)ccc4[C@H]3CC[C@@]21C` [ethynyl estradiol, 17α-Ethynyl estradiol, reference compound], the “uterine weight (result in words)” value with uterus is recorded as “marked stimulatory action on the uterus”. In addition, the inhibition in vivo at 0.1 mg/kg with serum cholesterol (Rattus norvegicus, 96 h, Dose 0.1 mg/kg, oral, daily for 4 days, OVX rats, * = significantly different than OVX control, read-out: Serum Cholesterol (% dec. OVX)) came out at 89.6%. In the data set with serum cholesterol (compared to ovariectomized control animals, four day dosing, EE2 orally at 0.1 mg/Kg/day), the “serum cholesterol (result in words)” value was “caused a decrease in serum cholesterol”. In addition, the “tibia density / bone loss (result in words)” value in the data set with tibia density is recorded as “prevented this loss”. The “Uterine EPO (Vmax)” value in data set [1] (Dose 0.1 mg/kg, oral, daily for 4 days, OVX rats, * = significantly different than OVX control) is recorded as 120.0*. For the same molecule, in data set [1] (ovariectomized rats, measured by assay of eosinophil peroxidase activity), the “eosinophil infiltration into the uterus (result in words)” value was “substantial, expected increase in eosinophil infiltration”.
